The nature of data set [1]: AUC (0 to infinity) in C57BL mouse at 10 mg/kg, po or 2 mg/kg, iv. The class given is ADME, organism-based. Particulars: in vivo.
Data set [2] in a line: Protein binding in mouse plasma. The settings on record: read-out: PPB (converted). The class given is ADME, cell-free.
Data set [3] is described as follows: Metabolic stability in mouse liver microsomes assessed as half life. The class given is ADME, Microsome. On the technique in general: Liver microsomes are vesicles of endoplasmic reticulum, rich in cytochrome P450 enzymes.
A short description of data set [4]: Tmax in C57BL mouse at 10 mg/kg, po or 2 mg/kg, iv. The class given is ADME, organism-based. The settings on record: in vivo.
Data set [5] can be described thus: Unbound clearance in C57BL mouse at 10 mg/kg, po or 2 mg/kg, iv. The class given is ADME, organism-based. The settings on record: in vivo.
Data set [6] is described as follows: Metabolic stability in human liver microsomes assessed as half life. The class given is ADME, Microsome.
Data set [7] is described as follows: Protein binding in human plasma. The class given is ADME, cell-free. Particulars: read-out: PPB (converted).
The nature of data set [8]: Oral bioavailability in C57BL mouse at 10 mg/kg. The data set is classed as ADME, organism-based. Particulars: in vivo.
Data set [9] can be described thus: Solubility of compound in SGF at pH 1. The data set is classed as physicochemical.
A short description of data set [10]: Solubility of compound at pH 7. The class given is physicochemical. Particulars: buffer.
Data set [11] in a line: Solubility of compound in FaSSIF at pH 6.5. The class given is physicochemical.
Data set [12] in a line: Volume of distribution at steady state in C57BL mouse at 10 mg/kg, po or 2 mg/kg, iv. The class given is ADME, organism-based. The settings on record: in vivo.
Data set [13] can be described thus: Half life in C57BL mouse at 10 mg/kg, po or 2 mg/kg, iv. The class given is ADME, organism-based. Particulars: in vivo.
Data set [14] in a line: Cmax in C57BL mouse at 10 mg/kg, po or 2 mg/kg, iv. The class given is ADME, organism-based. The settings on record: in vivo.
For a further data set, the system named is MOLM-13. The data set is described as follows: cells. Particulars: Homo sapiens, MOLM-13, 72 h.

Converted amounts (≈) assume the structure as drawn.

The term AUC(0-inf) denotes total exposure, with the tail of the curve extrapolated. A higher AUC(0-inf) goes with more exposure. One may read the half-life as how long it takes for the measured level to halve. In general, Tmax refers to the time from dosing to the highest level. A word on the solubility: it is the dissolved amount per volume that the medium holds. A higher solubility goes with much dissolved substance. Broadly, the Cmax is the maximum level reached in the sampled fluid or tissue. In general, IC50 refers to the concentration needed to halve the response being measured.

Description for MOLM-13: Antiproliferative activity against human MOLM-13 cells assessed as inhibition of cell viability incubated for 72 hrs by Cell Titer Glo assay

On to `CCn1c(CO)nn(-c2cc3c(C(C)C)cn(-c4ccccc4C)c(=O)c3cc2F)c1=O`, for which, in data set [1], the AUC(0-inf) was determined as 57.2 µg·h/mL. Besides, the fraction unbound in data set [2] is 0.088; in data set [7] it was 0.099. Besides, the half-life in data set [3] was above 3 h; in data set [6] it was above 3 h; in data set [13] it was 5.68 h. Besides, the time to peak (Tmax) in data set [4] came to 1.67 h. In data set [5], this compound displayed a CL free of 2.48 L/h/kg. In data set [8], the bioavailability was 125%. For the same compound, the solubility at 24 h came out at 0.025 mg/mL (≈ 57.3 µM) in data set [9] and 0.067 mg/mL (≈ 153 µM) in data set [11]. In data set [10], this compound showed a solubility of 371 µM (≈ 162 µg/mL). This compound also showed a Vdss in data set [12] of 1.64 L/kg. Besides, the Cmax in data set [14] is 6.17 µg/mL.
For the compound `CCn1c(CO)nn(-c2cc3c(C(C)C)cn(-c4c(F)cccc4Cl)c(=O)c3cc2F)c1=O`, the half-life in data set [3] and in data set [6] was above 3 h throughout. Further, the solubility in data set [10] was below 4 µM.
With `CCn1c(CO)nn(-c2nc3c(C(C)C)nn(-c4ccccc4C)c(=O)c3cc2F)c1=O`, the half-life in [3] and in [6] was above 3 h each time. In data set [10], this compound came in with a solubility of 133 µM (≈ 58.3 µg/mL). Further, the IC50 in the data set on MOLM-13 amounted to 3.3 nM.
Take `CCn1c(CO)nn(-c2cc3c([C@H](C)C(F)(F)F)nn(-c4ccccc4C)c(=O)c3cc2F)c1=O`: the half-life in [3] and in data set [6] was above 3 h in each case. Further, in data set [10], the solubility was below 4 µM. Moreover, half-maximal inhibition with MOLM-13 (IC50) was put at 1.6 nM.
In the case of `CCn1c(CO)nn(-c2cc3c(C(C)C)nn(-c4c(F)cccc4Cl)c(=O)c3cc2F)c1=O`, the AUC(0-inf) in data set [1] came to 50.4 µg·h/mL. Moreover, the fraction unbound was 0.025 in data set [2] and 0.044 in [7]. For the same compound, the values for the half-life in [3], in data set [6] and in data set [13] were above 3 h, above 3 h and 5.02 h, respectively. The Tmax in data set [4] turned out to be 1.67 h. Further, the CL free in data set [5] came to 8.64 L/h/kg. In [8], the bioavailability stood at 103%. In data set [10], this compound registered a solubility below 4 µM. The same compound yielded a Vdss in [12] of 1.43 L/kg. In addition, the IC50 in the data set with MOLM-13 stood at 0.39 nM. The compound also displayed a Cmax in data set [14] of 5.73 µg/mL.
For `CCn1c(CO)nn(-c2cc3c(C(C)C)nn(-c4ccccc4C)c(=O)c3cc2F)c1=O`, the AUC(0-inf) in data set [1] is 35.1 µg·h/mL. Moreover, the values for the fraction unbound in [2] and in data set [7] were 0.134 and 0.122, respectively. For the same compound, the half-life is above 3 h in data set [3], above 3 h in data set [6] and 4.55 h in [13]. In data set [4], the Tmax came out at 0.83 h. The CL free in data set [5] was found to be 2.44 L/h/kg. Moreover, the bioavailability in [8] came to 111%. The solubility at 24 h in data set [9] was 0.078 mg/mL (≈ 178 µM); in data set [11], 0.099 mg/mL (≈ 226 µM). In addition, the solubility in data set [10] was above 400 µM. In data set [12], this compound returned a Vdss of 1.94 L/kg. The compound also had an IC50 in the data set on MOLM-13 of 0.72 nM. In addition, the concentration in [14] peaked (Cmax) at 4.26 µg/mL.
In the case of `C=C(C)c1nn(-c2c(F)cccc2Cl)c(=O)c2cc(F)c(-n3nc(CO)n(CC)c3=O)cc12`, the half-life in [3] and in data set [6] was above 3 h each time. For the same compound, the solubility in data set [10] stood at 259 µM (≈ 123 µg/mL). In addition, in the data set with MOLM-13, the IC50 was 0.39 nM.
As for `CCn1c(CO)nn(-c2cc3c([C@@H](C)C(F)(F)F)nn(-c4ccccc4C)c(=O)c3cc2F)c1=O`, the half-life is above 3 h in data set [3] and 2.98 h in data set [6]. This compound showed a solubility in data set [10] below 4 µM. Moreover, in the data set on MOLM-13, it took 1.4 nM to reach half-maximal inhibition (IC50).
On the same counts, the results for `CCn1c(CO)nn(-c2cc3c(cc2F)c(=O)c(-c2ccccc2C)cn3C(C)C)c1=O` are above 3 h, above 3 h, 83 µM (≈ 36.2 µg/mL) and 9.3 nM.
Regarding `CCn1c(CO)nn(-c2cc3c(cc2F)c(=O)c(-c2c(F)cccc2Cl)cn3C(C)C)c1=O`, the half-life in data set [3] and in data set [6] was above 3 h throughout. Besides, the solubility in data set [10] was above 400 µM. This compound displayed an IC50 in the data set with MOLM-13 of 29 nM.
Consider `CCn1c(CO)nn(-c2cc3c(cc2F)C(=O)N(c2ccccc2C)C[C@H]3C(C)C)c1=O`, for which, in the data set on MOLM-13, it took 19 nM to reach half-maximal inhibition (IC50).
The same measure, in the same setting: then `CCn1c(CO)nn(-c2cc3c(cc2F)C(=O)N(c2c(F)cccc2Cl)CN3C(C)C)c1=O`, with 0.86 nM.
Take `CCn1c(CO)nn(-c2cc3c(C(C)C)cc(-c4ccccc4C)c(=O)n3cc2F)c1=O`: in data set [1], the total exposure AUC(0-inf) was found to be 21.8 µg·h/mL. For the same compound, the fraction unbound is 0.032 in [2] and 0.049 in data set [7]. Besides, the half-life was above 3 h in data set [3], 2.33 h in data set [6] and 4.03 h in data set [13]. In addition, in data set [4], the Tmax stood at 0.67 h. In addition, the CL free in [5] was determined as 14.7 L/h/kg. Besides, in data set [8], the bioavailability amounted to 102%. Besides, the solubility at 24 h in [9] amounted to 0.043 mg/mL (≈ 98.5 µM); in [11], 0.198 mg/mL (≈ 454 µM). The Vdss in data set [12] was 2.12 L/kg. The same compound returned an IC50 in the data set with MOLM-13 of 0.72 nM. This compound also returned a Cmax in data set [14] of 3.21 µg/mL.
Turning to `CCn1c(CO)nn(-c2cc3c(cc2F)C(=O)C(c2ccccc2C)CN3C(C)C)c1=O` (configuration not stated), the IC50 in the data set with MOLM-13 came to 0.47 nM.
As for `CCn1c(CO)nn(-c2cc3c(cc2F)C(=O)N(c2ccccc2C)C[C@@H]3C(C)C)c1=O`, it took 8.2 nM to reach half-maximal inhibition with MOLM-13 (IC50).

(Values after ChEMBL document CHEMBL6083217, “Identification of isoquinolinone DHODH inhibitor isosteres” (Bioorg Med Chem Lett, 2024).)
